One block for each compound: values may come before it.
Key:
[1] = molecular target: transient receptor potential vanilloid type 1 (TRPV1) channel (Homo sapiens, UniProt Q8NER1); details: in vitro; cited from earlier work
WT and TRPV1−/− hearts = experiment: OLDA-induced CGRP and SP release from hearts (radioimmunoassay); set-up: species or system mouse
hearts of TRPV1−/− mice = experiment: Langendorff perfused heart, ischemia and reperfusion (I/R) with OLDA, TRPV1-null; set-up: species or system mouse
Protocol: (§1) The following measurements were made on the two types of heart tissue: left ventricular end-diastolic pressure (LVEDP), left ventricular developed pressure (LVDP), coronary flow (CF), and left ventricular (LV) peak positive rate of pressure change/rate of time change (+dP/dt) were evaluated after I/R.

hearts of WT mice = experiment: Langendorff perfused heart, ischemia and reperfusion (I/R) with OLDA, wild type; set-up: species or system mouse; details: OLDA 1.5×10^−7M; WT
Protocol: as §1

[2] = tested on: Wistar rats fed a NS or HS diet for 10 days; experiment: MAP responses to i.v. capsaicin with or without CAPZ in urethane-anesthetized rats; type: in vivo, rat; details: for decrease in MAP: in mmHg
Protocol: Surgical Preparation Rats were anesthetized with ketamine and xylazine (80 and 4 mg/kg intraperitoneally, respectively) for cannulation or with urethane (1.5 g/kg intraperitoneally) for capsaicin administration. The left jugular vein, carotid and femoral artery were cannulated under anesthesia for injection of drugs or monitoring of mean arterial pressure (MAP) and heart rate (HR).
Each dose of injection was separated by a 30-minute interval. To determine the specificity of capsaicin, CAPZ (3 mg/kg) was administered 10 minutes before capsaicin injection in a separate group.

[3] = tested on: rats fed either a high or normal sodium diet; details: rat, in vivo; cited from earlier work
renal cortex and medulla = experiment: Neonatal capsaicin treatment plus NS or HS diet: renal superoxide, SOD and NAD(P)H oxidase subunits; set-up: species or system rat; details: for renal cortical Cu/Zn SOD activity / renal cortical Cu/Zn SOD protein expression / renal cortical Mn SOD activity / renal cortical Mn SOD protein expression / renal cortical O2— production / renal cortical gp91 phox protein expression / renal cortical p47phox protein expression / renal medullary Cu/Zn SOD activity / renal medullary Cu/Zn SOD protein expression / renal medullary Mn SOD activity / renal medullary Mn SOD protein expression / renal medullary O2— production / renal medullary p47phox protein expression: neonatal CAP
Protocol: Enhanced oxidative stress in kidneys of salt-sensitive hypertension: role of sensory nerves (Am J Physiol Heart Circ Physiol 291: H3136-H3143, 2006). To determine the mechanism(s) underlying enhanced oxidative stress in kidneys of salt-sensitive hypertension, neonatal Wistar rats were given vehicle or capsaicin (CAP, 50 mg/kg sc) on the first and second days of life. After being weaned, male rats were assigned into four groups and treated for 2 wk with the following: vehicle+a normal sodium diet (NS, 0.4%, CON-NS), vehicle+a high-sodium diet (HS, 4%, CON-HS), CAP+NS (CAP−NS), and CAP+HS (CAP−HS). […] Plasma and urinary 8-iso-prostaglandin F2alpha levels increased by approximately 40% in CON-HS and CAP−HS rats compared with their respective controls fed a NS diet (P≦0.05), and these parameters were higher in CAP−HS compared with CON-HS rats. Superoxide (O2—) levels in the renal cortex and medulla increased by approximately 45% in CAP−HS compared with CON-HS, CON-NS, and CAP−NS rats (P≦0.05). […]

renal tissues = experiment: Capsaicin-induced CGRP release from renal tissues; set-up: species or system rat; details: Cap-HS and Cap-NS vs Con-NS and Con-HS
Description: N¼5,_P<0.05 versus vehicle, capsazepine plus capsaicin and capsazepine; †P<0.001 versus capsaicin of control rats with a normal sodium diet (Con-NS) and capsaicin of control rats with a high sodium diet (Con-HS). Vehicle; capsaicin; capsazepine and capsaicin; capsazepine.
To examine renal sensory nerve function, renal CGRP release after stimulation of the renal sensory nerves with capsaicin was examined.

Wistar rats = experiment: Neonatal capsaicin treatment plus NS or HS diet: blood pressure, 8-isoprostane, creatinine clearance; type: in vivo, rat
Protocol: Enhanced oxidative stress in kidneys of salt-sensitive hypertension: role of sensory nerves (Am J Physiol Heart Circ Physiol 291: H3136-H3143, 2006). To determine the mechanism(s) underlying enhanced oxidative stress in kidneys of salt-sensitive hypertension, neonatal Wistar rats were given vehicle or capsaicin (CAP, 50 mg/kg sc) on the first and second days of life. After being weaned, male rats were assigned into four groups and treated for 2 wk with the following: vehicle+a normal sodium diet (NS, 0.4%, CON-NS), vehicle+a high-sodium diet (HS, 4%, CON-HS), CAP+NS (CAP−NS), and CAP+HS (CAP−HS). […] Plasma and urinary 8-iso-prostaglandin F2alpha levels increased by approximately 40% in CON-HS and CAP−HS rats compared with their respective controls fed a NS diet (P≦0.05), and these parameters were higher in CAP−HS compared with CON-HS rats. Superoxide (O2—) levels in the renal cortex and medulla increased by approximately 45% in CAP−HS compared with CON-HS, CON-NS, and CAP−NS rats (P≦0.05).

rats = details: dose-dependent; abolished by TRPV1 blockade or ipsilateral renal denervation; cited from earlier work
[4] = CAP−HS compared with CON-HS, CON-NS, CAP−NS

Sequence of transient receptor potential vanilloid type 1 (TRPV1) channel (Q8NER1 whole entry, species assumed): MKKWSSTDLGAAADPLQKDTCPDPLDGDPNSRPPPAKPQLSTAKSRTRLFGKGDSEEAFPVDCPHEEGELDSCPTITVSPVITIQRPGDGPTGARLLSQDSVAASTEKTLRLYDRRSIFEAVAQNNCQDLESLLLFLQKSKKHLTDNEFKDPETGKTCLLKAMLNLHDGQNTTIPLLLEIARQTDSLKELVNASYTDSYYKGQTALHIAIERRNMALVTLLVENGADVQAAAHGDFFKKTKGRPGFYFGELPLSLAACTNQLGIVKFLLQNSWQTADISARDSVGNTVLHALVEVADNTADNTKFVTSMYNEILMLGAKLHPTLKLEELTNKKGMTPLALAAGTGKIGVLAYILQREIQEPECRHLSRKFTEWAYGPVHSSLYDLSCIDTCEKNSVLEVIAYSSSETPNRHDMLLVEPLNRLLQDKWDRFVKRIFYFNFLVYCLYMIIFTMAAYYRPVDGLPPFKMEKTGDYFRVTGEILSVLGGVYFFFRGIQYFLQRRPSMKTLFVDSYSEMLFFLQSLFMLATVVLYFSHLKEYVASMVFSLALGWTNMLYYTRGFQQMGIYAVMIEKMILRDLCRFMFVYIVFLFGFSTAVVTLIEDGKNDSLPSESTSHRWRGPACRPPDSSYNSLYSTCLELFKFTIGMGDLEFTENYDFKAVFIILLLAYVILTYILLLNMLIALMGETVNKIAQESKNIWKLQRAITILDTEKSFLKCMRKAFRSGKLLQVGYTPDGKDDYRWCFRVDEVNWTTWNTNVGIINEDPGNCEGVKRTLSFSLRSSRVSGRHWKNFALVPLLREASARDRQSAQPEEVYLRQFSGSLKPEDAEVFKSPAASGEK

SMILES: CCCCCCCC/C=C\CCCCCCCC(=O)NCCc1ccc(O)c(O)c1 [OLDA, N-oleoyl-dopamine]
potency relative to capsaicin [1]: at least 30 times
CGRP and SP release in WT compared to TRPV1−/− hearts (WT and TRPV1−/− hearts): significantly higher
protective effect in TRPV1−/− hearts (hearts of TRPV1−/− mice): void
LV peak positive dP/dt (+dP/dt) after I/R (hearts of TRPV1−/− mice; OLDA 1.5×10^−7M, TRPV1−/−): 1967±299 mmHg/s
coronary flow (CF) after I/R (hearts of TRPV1−/− mice; OLDA 1.5×10^−7M, TRPV1−/−): 53±2%
left ventricular developed pressure (LVDP) after I/R (hearts of TRPV1−/− mice; OLDA 1.5×10^−7M, TRPV1−/−): 39.8±3.7 mmHg
left ventricular end-diastolic pressure (LVEDP) after I/R (hearts of TRPV1−/− mice; OLDA 1.5×10^−7M, TRPV1−/−): 29.9±3.5 mmHg
LV peak positive dP/dt (+dP/dt) after I/R (hearts of WT mice): 3227±126 mmHg/s
coronary flow (CF) after I/R (hearts of WT mice): 76±6%
left ventricular developed pressure (LVDP) after I/R (hearts of WT mice): 61.3±3.8 mmHg
left ventricular end-diastolic pressure (LVEDP) after I/R (hearts of WT mice): 10.1±0.6 mmHg

increase in superoxide levels in renal cortex and medulla (renal cortex and medulla; [4]): approximately 45%
renal cortical Cu/Zn SOD activity (renal cortex and medulla; HS): 74.6 9.6 mU/mg protein
renal cortical Cu/Zn SOD protein expression (renal cortex and medulla; HS): 0.39 0.05 %-actin arbitrary units
renal cortical Mn SOD activity (renal cortex and medulla; HS): 14.3 3.5 mU/mg protein
renal cortical Mn SOD protein expression (renal cortex and medulla; HS): 0.10 0.01 %-actin arbitrary units
renal cortical O2— production (renal cortex and medulla; HS): 3.53 0.46 nmol_min—1_mg dry wt—1
renal cortical gp91 phox protein expression (renal cortex and medulla; HS): 0.21 0.03 arbitrary units
renal cortical p47phox protein expression (renal cortex and medulla; HS): 0.07 0.01 arbitrary units
renal medullary Cu/Zn SOD activity (renal cortex and medulla; HS): 101.7 11.6 mU/mg protein
renal medullary Cu/Zn SOD protein expression (renal cortex and medulla; HS): 0.41 0.05 %-actin arbitrary units
renal medullary Mn SOD activity (renal cortex and medulla; HS): 27.1 4.2 mU/mg protein
renal medullary Mn SOD protein expression (renal cortex and medulla; HS): 0.13 0.02 %-actin arbitrary units
renal medullary O2— production (renal cortex and medulla; HS): 2.32 0.29 nmol_min—1_mg dry wt—1
renal medullary p47phox protein expression (renal cortex and medulla; HS): 0.1 0.01 arbitrary units
renal cortical Cu/Zn SOD activity (renal cortex and medulla; NS): 54.8 7.6 mU/mg protein
renal cortical Cu/Zn SOD protein expression (renal cortex and medulla; NS): 0.29 0.05 %-actin arbitrary units
renal cortical Mn SOD activity (renal cortex and medulla; NS): 10.4 2.5 mU/mg protein
renal cortical Mn SOD protein expression (renal cortex and medulla; NS): 0.07 0.01 %-actin arbitrary units
renal cortical O2— production (renal cortex and medulla; NS): 2.35 0.55 nmol_min—1_mg dry wt—1
renal cortical gp91 phox protein expression (renal cortex and medulla; NS): 0.17 0.03 arbitrary units
renal cortical p47phox protein expression (renal cortex and medulla; NS): 0.05 0.01 arbitrary units
renal medullary Cu/Zn SOD activity (renal cortex and medulla; NS): 67.0 7.6 mU/mg protein
renal medullary Cu/Zn SOD protein expression (renal cortex and medulla; NS): 0.27 0.05 %-actin arbitrary units
renal medullary Mn SOD activity (renal cortex and medulla; NS): 18.7 3.8 mU/mg protein
renal medullary Mn SOD protein expression (renal cortex and medulla; NS): 0.09 0.02 %-actin arbitrary units
renal medullary O2— production (renal cortex and medulla; NS): 1.43 0.40 nmol_min—1_mg dry wt—1
renal medullary p47phox protein expression (renal cortex and medulla; NS): 0.07 0.01 arbitrary units
SMILES: COc1cc(CNC(=O)CCCC/C=C/C(C)C)ccc1O [capsaicin, (E)-N-(4-hydroxy-3-methoxybenzyl)-8-methylnon-6-enamide]
decrease in MAP ([2]; CAP 10 μg/kg iv, HS): 11±2
decrease in MAP ([2]; CAP 10 μg/kg iv, NS): 6±1
decrease in MAP ([2]; CAP 30 μg/kg iv, HS): 21±3
decrease in MAP ([2]; CAP 30 μg/kg iv, NS): 12 ±2
decrease in MAP (depressor effect) ([2]; capsaicin 10 μg/kg iv, HS): 11±2 mmHg
decrease in MAP (depressor effect) ([2]; capsaicin 10 μg/kg iv, NS): 6±1 mmHg
decrease in MAP (depressor effect) ([2]; capsaicin 30 μg/kg iv, HS): 21±3 mmHg
decrease in MAP (depressor effect) ([2]; capsaicin 30 μg/kg iv, NS): 12±2 mmHg
MAP [3]: decrease in MAP
plasma CGRP levels [3]: increase in plasma CGRP levels
renal CGRP release in response to 1 mmol/l capsaicin in capsaicin-pretreated vs control rats (renal tissues): significantly lower
decrease in creatinine clearance (Wistar rats; [4]): 45%
increase in plasma and urinary 8-iso-prostaglandin F2alpha levels (Wistar rats; CAP−HS compared with control fed a NS diet): approximately 40%
plasma and urine 8-isoprostane levels (Wistar rats; neonatal CAP, NS diet): did not increase
Uflow and UNa (rats): Increases

From patent publication US20080051454A1, “Compositions and methods for transient receptor potential vanilloid (TRPV) channel mediated treatments” (The Board of Trustees Operating Michigan State University, priority 2006, published 2008)
